# In US4190666A, “Anti-inflammatory 4,5-diarly-2-(substituted-thio)imidazoles and their corresponding sulfoxides and sulfones” (E. I. Du Pont de Nemours and Company, priority 1978, dated 1980):
# Read-outs that look alike come from different tables or passages of the source.
# Key:
# [1] = tested on: established adjuvant-induced arthritis in rats; test: Established adjuvant-induced arthritis in rats (therapeutic, paw volume); assay type: in vivo, Charles River Lewis male rats; settings: for ED50: Rattus norvegicus, read-out: Adjuvant Arthritis (ED50%)
# [2] = tested on: phenylquinone writhing syndrome; test: Phenylquinone writhing test (analgesic activity); assay type: in vivo, female white mice; settings: oral; for ED50: Mus musculus, 1% methylcellulose, Tables VIII and IX, read-out: ED50 (effective analgesic dose for 50% of the mice); for peak time: time of peak action
# Protocol: Phenylquinone Writhing Test A standard procedure for detecting and comparing the analgesic activity of compounds in this series for which there is good correlation with human efficacy is the standard phenylquinone writhing test modified from Siegmund, et al., Proc. Soc. Exp. Biol. Med. 95, 729 (1957). […] Aqueous (0.01% phenyl-p-benzoquinone) phenylquinone was injected intraperitoneally at 24 minutes later using 0.20 ml per mouse. […] The effective analgesic dose for 50% of the mice (ED50) was calculated by the moving average method of Thompson, W. R., Bact. Rev. 11, 115-145 (1947); also time of peak action was determined for many of the compounds.
# [3] = po, established arthritis, 7 daily doses, ED50% decrease from control paw volume, Tables I-III
# [4] = established arthritis, oral, 7 daily doses, ED50% decrease from control paw volume, Tables I-III
structure (smiles),measurement,setting,value
"COc1ccc(-c2nc(SCC(F)(F)F)[nH]c2-c2ccc(OC)cc2)cc1 [Example 4, 4,5-bis-(4-Methoxyphenyl)-2-(2,2,2-trifluoroethylthio)imidazole]",ED50,[1]; [3],20 mg/kg
same,ED50,[2],1.2 mg/kg
same,peak time,[2],240 min
"COc1ccc(-c2nc([S+]([O-])CC(F)(F)F)[nH]c2-c2ccc(OC)cc2)cc1 (stereo not drawn) [Example 5, 4,5-bis(4-Methoxyphenyl)-2-(2,2,2-trifluoroethylsulfinyl)-imidazole]",ED50,[1]; [3],10 mg/kg
same,ED50,[2],0.86 mg/kg
same,peak time,[2],60 min
"COc1ccc(-c2nc(S(=O)(=O)CC(F)(F)F)[nH]c2-c2ccc(OC)cc2)cc1 [Example 6, 4,5-bis(4-Methoxyphenyl)-2-(2,2,2-trifluoroethylsulfonyl)-imidazole]",ED50,[1]; [3],3.8 mg/kg
same,ED50,[2],0.58 mg/kg
same,peak time,[2],60 min
"O=S(=O)(c1nc(-c2ccccc2)c(-c2ccccc2)[nH]1)C(F)(F)C(F)F [Example 60, 4,5-diphenyl-2-(1,1,2,2-tetrafluoroethylsulfonyl)imidazole]",ED50,[1]; [3],0.13 mg/kg
same,ED50,[2],0.48 mg/kg
same,peak time,[2],120 min
"COc1ccc(-c2nc(S(=O)(=O)C(F)(F)C(F)F)[nH]c2-c2ccc(OC)cc2)cc1 [Example 64, 4,5-bis(4-methoxyphenyl)-2-(1,1,2,2-tetrafluoroethylsulfonyl)imidazole]",ED50,[1]; [3],1.1 mg/kg
same,ED50,[2],0.11 mg/kg
same,peak time,[2],120 min
COc1ccc(-c2nc([S+]([O-])C(F)(F)C(F)F)[nH]c2-c2ccc(OC)cc2)cc1 (stereo not drawn) [Example 65],ED50,[1]; [3],2.4 mg/kg
same,ED50,[2],0.8 mg/kg
COc1ccc(-c2nc(S(=O)(=O)C(F)F)[nH]c2-c2ccc(OC)cc2)cc1 [Example 74],ED50,[1]; [3],0.5 mg/kg
same,ED50,[2],1.5 mg/kg
COc1ccc(-c2nc(S(=O)(=O)C(F)(F)C(F)F)[nH]c2-c2ccccc2)cc1 [Example 82],ED50,[1]; [3],1.1 mg/kg
same,ED50,[2],0.33 mg/kg
same,peak time,[2],240 min
COc1ccc(-c2[nH]c(S(=O)(=O)C(F)(F)C(F)F)nc2-c2ccccc2Cl)cc1 [Example 83],ED50,[1]; [3],7.2 mg/kg
same,ED50,[2],0.56 mg/kg
same,peak time,[2],60 min
COc1ccc(-c2nc(S(=O)(=O)C(F)(F)C(F)Br)[nH]c2-c2ccc(OC)cc2)cc1 (stereo not drawn) [Example 95],ED50,[1]; [3],2.4 mg/kg
same,ED50,[2],2.8 mg/kg
Cc1ccc(-c2nc(S(=O)(=O)C(F)(F)C(F)F)[nH]c2-c2ccccc2)cc1 [Example 96],ED50,[1]; [3],0.6 mg/kg
O=S(=O)(c1nc(-c2ccc3c(c2)OCO3)c(-c2ccc3c(c2)OCO3)[nH]1)C(F)(F)C(F)F [Example 97],ED50,[1]; [3],1 mg/kg
COc1ccc(-c2nc([S+]([O-])CC(C)=O)[nH]c2-c2ccc(OC)cc2)cc1 (stereo not drawn) [Example 98],ED50,[1]; [3],56 mg/kg
COc1ccc(-c2nc(S(=O)(=O)CS(C)(=O)=O)[nH]c2-c2ccc(OC)cc2)cc1 [Example 99],ED50,[1]; [3],54 mg/kg
COc1ccc(-c2nc(S(=O)(=O)CC(C)=O)[nH]c2-c2ccc(OC)cc2)cc1 [Example 100],ED50,[1]; [3],18 mg/kg
"O=S(=O)(c1nc(-c2ccccc2)c(-c2ccccc2)[nH]1)C(F)(F)F [Example 103, 4,5-diphenyl-2-trifluoromethylsulfonylimidazole]",ED50,[1]; [3],0.03 mg/kg
"O=S(=O)(c1nc(-c2ccc(F)cc2)c(-c2ccc(F)cc2)[nH]1)C(F)(F)F [Example 104, 4,5-bis(p-fluorophenyl)-2-trifluoromethylsulfonylimidazole]",ED50,[1]; [3],0.015 mg/kg
COc1ccc(-c2nc(SC(F)(F)F)[nH]c2-c2ccc(OC)cc2)cc1 [Example 107],ED50,[1]; [3],1.5 mg/kg
CCCCSc1nc(-c2ccc(F)cc2)c(-c2ccc(F)cc2)[nH]1 [Example 108],percent (%) reduction in paw volume measured at the indicated dose,"[1]; 10 mg./kg., oral",77%
COc1ccc(-c2nc(SC(F)(F)F)[nH]c2-c2ccc(F)cc2)cc1 [Example 109],ED50,[1]; [3],2.7 mg/kg
Fc1ccc(-c2nc(SC(F)(F)C(F)(F)F)[nH]c2-c2ccc(F)cc2)cc1 [Example 110],ED50,[1]; [3],0.2 mg/kg
FC(F)(F)Sc1nc(-c2ccccc2)c(-c2ccc(Cl)c(Cl)c2)[nH]1 [Example 111],ED50,[1]; [3],7 mg/kg
CSc1nc(-c2ccccc2)c(-c2ccc(Cl)c(Cl)c2)[nH]1 [Example 112],percent (%) reduction in paw volume measured at the indicated dose,"[1]; 25 mg./kg., oral",62%
CSc1nc(-c2ccccc2)c(-c2cccc(F)c2)[nH]1 [Example 113],ED50,[1]; [3],50 mg/kg
CSc1nc(-c2ccccc2)c(-c2cccc(Cl)c2)[nH]1 [Example 114],percent (%) reduction in paw volume measured at the indicated dose,"[1]; 50 mg./kg., oral",45%
CCOc1ccc(-c2[nH]c(SC)nc2-c2ccccc2)cc1 [Example 115],percent (%) reduction in paw volume measured at the indicated dose,"[1]; 50 mg./kg., oral",33%
COc1ccc(-c2nc(SC(F)(F)C(F)I)[nH]c2-c2ccc(OC)cc2)cc1 (stereo not drawn) [Example 116],Adjuvant Arthritis (ED50%),[1]; [4],30 mg/kg
COc1ccc(-c2[nH]c(SC(F)(F)C(F)F)nc2-c2ccc(F)cc2)cc1 [Example 117],ED50,[1]; [3],14 mg/kg
CCOc1ccc(-c2[nH]c(SC(F)(F)C(F)F)nc2-c2ccccc2)cc1 [Example 118],percent (%) reduction in paw volume measured at the indicated dose,"[1]; 10 mg./kg., oral",32%
FC(F)C(F)(F)Sc1nc(-c2ccccc2)c(-c2ccc(Cl)c(Cl)c2)[nH]1 [Example 119],ED50,[1]; [3],3 mg/kg
Fc1cccc(-c2[nH]c(SC(F)(F)C(F)F)nc2-c2ccccc2)c1 [Example 120],percent (%) reduction in paw volume measured at the indicated dose,"[1]; 1.0 mg./kg., oral",37%
FC(F)C(F)(F)Sc1nc(-c2ccccc2)c(-c2cccc(Cl)c2)[nH]1 [Example 121],ED50,[1]; [3],0.6 mg/kg
O=S(=O)(c1nc(-c2ccccc2)c(-c2ccccc2)[nH]1)C(F)(F)CF [Example 124],ED50,[1]; [3],0.15 mg/kg
"COc1ccc(-c2nc(S(=O)(=O)C(F)(F)CF)[nH]c2-c2ccc(OC)cc2)cc1 [Example 125, 4,5-bis(4-methoxyphenyl)-2-(1,1,2-trifluoroethylsulfonyl)imidazole]",ED50,[1]; [3],5 mg/kg
same,ED50,[2],0.25 mg/kg
same,peak time,[2],160 min
O=S(=O)(c1nc(-c2ccccc2)c(-c2ccccc2)[nH]1)C(F)(F)C(F)Br (stereo not drawn) [Example 126],ED50,[1]; [3],0.85 mg/kg
"COc1ccc(-c2nc(S(=O)(=O)C(F)(F)F)[nH]c2-c2ccc(OC)cc2)cc1 [Example 127, 4,5-bis(4-methoxyphenyl)-2-(trifluoromethylsulfonyl)imidazole]",ED50,[1]; [3],0.33 mg/kg
same,ED50,[2],0.045 mg/kg
same,peak time,[2],240 min
COc1ccc(-c2nc(S(=O)(=O)C(F)(F)C(F)I)[nH]c2-c2ccc(OC)cc2)cc1 (stereo not drawn) [Example 128],ED50,[1]; [3],3 mg/kg
CCCCS(=O)(=O)c1nc(-c2ccc(OC)cc2)c(-c2ccc(OC)cc2)[nH]1 [Example 129],percent (%) reduction in paw volume measured at the indicated dose,"[1]; 50 mg./kg., oral",71%
COc1ccc(-c2nc(S(=O)(=O)C(F)(F)F)[nH]c2-c2ccc(F)cc2)cc1 [Example 130],ED50,[1]; [3],1.4 mg/kg
same,ED50,[2],0.1 mg/kg
Cc1ccc(-c2[nH]c(S(=O)(=O)C(F)(F)C(F)F)nc2-c2ccc(Cl)cc2)cc1 [Example 131],percent (%) reduction in paw volume measured at the indicated dose,"[1]; 10 mg./kg., oral",36%
COc1ccc(-c2[nH]c(S(=O)(=O)C(F)(F)C(F)F)nc2-c2ccc(F)cc2)cc1 [Example 133],ED50,[1]; [3],2.2 mg/kg
same,ED50,[2],0.27 mg/kg
[O-][S+](c1nc(-c2ccc(F)cc2)c(-c2ccc(F)cc2)[nH]1)C(F)(F)C(F)F (stereo not drawn) [Example 134],ED50,[1]; [3],0.055 mg/kg
O=[N+]([O-])c1ccc(-c2nc(S(=O)(=O)C(F)(F)C(F)F)[nH]c2-c2ccc([N+](=O)[O-])cc2)cc1 [Example 135],ED50,[1]; [4],8.5 mg/kg
C[S+]([O-])c1nc(-c2ccc(F)cc2)c(-c2ccc(F)cc2)[nH]1 (stereo not drawn) [Example 136],ED50,[1]; [3],4 mg/kg
"O=S(=O)(c1nc(-c2ccccc2)c(-c2ccc(Cl)c(Cl)c2)[nH]1)C(F)(F)C(F)F [Example 137, 4(or 5)-(3,4-dichlorophenyl)-5(or 4)-phenyl-2-(1,1,2,2-tetrafluoroethylsulfonyl)imidazole]",ED50,[1]; [3],0.25 mg/kg
CCOc1ccc(-c2[nH]c(S(C)(=O)=O)nc2-c2ccccc2)cc1 [Example 138],percent (%) reduction in paw volume measured at the indicated dose,"[1]; 50 mg./kg., oral",41%
C[S+]([O-])c1nc(-c2ccccc2)c(-c2cccc(Cl)c2)[nH]1 (stereo not drawn) [Example 139],percent (%) reduction in paw volume measured at the indicated dose,"[1]; 75 mg./kg., oral",77%
CS(=O)(=O)c1nc(-c2ccccc2)c(-c2ccc(F)cc2)[nH]1 [Example 141],percent (%) reduction in paw volume measured at the indicated dose,"[1]; 9 mg./kg., oral",26%
CCOc1ccc(-c2[nH]c(S(=O)(=O)C(F)(F)C(F)F)nc2-c2ccccc2)cc1 [Example 142],ED50,[1]; [3],1.5 mg/kg
same,ED50,[2],0.95 mg/kg
same,peak time,[2],120 min
O=S(=O)(c1nc(-c2ccccc2)c(-c2cccc(F)c2)[nH]1)C(F)(F)C(F)F [Example 143],ED50,[1]; [3],0.06 mg/kg
O=S(=O)(c1nc(-c2ccccc2)c(-c2cccc(Cl)c2)[nH]1)C(F)(F)C(F)F [Example 144],ED50,[1]; [3],0.05 mg/kg
CS(=O)(=O)c1nc(-c2ccccc2)c(-c2ccc(Cl)c(Cl)c2)[nH]1 [Example 145],percent (%) reduction in paw volume measured at the indicated dose,"[1]; 50 mg./kg., oral",59%
C[S+]([O-])c1nc(-c2ccccc2)c(-c2ccc(Cl)c(Cl)c2)[nH]1 (stereo not drawn) [Example 146],ED50,[1]; [3],50 mg/kg
CS(=O)(=O)c1nc(-c2ccccc2)c(-c2cccc(F)c2)[nH]1 [Example 147],percent (%) reduction in paw volume measured at the indicated dose,"[1]; 75 mg./kg., oral",32%
C[S+]([O-])c1nc(-c2ccccc2)c(-c2cccc(F)c2)[nH]1 (stereo not drawn) [Example 148],percent (%) reduction in paw volume measured at the indicated dose,"[1]; 100 mg./kg., oral",67%
CS(=O)(=O)c1nc(-c2ccccc2)c(-c2cccc(Cl)c2)[nH]1 [Example 149],percent (%) reduction in paw volume measured at the indicated dose,"[1]; 10 mg./kg., oral",55%
